{"source": "paper PMC11447181", "about": "(Nature Communications, 2024)", "key": {"SLC19A3": {"system": "SLC19A3", "conditions": "cited from earlier work"}, "[1]": {"molecular_target": "T1, hSLC19A3-wt overexpressed in Expi293F cells (Homo sapiens, UniProt Q9BZV2)", "T1 construct": "full-length, wildtype human SLC19A3; expressed in transfected cells; host or cells: Expi293F", "T1 sequence (Q9BZV2 with tags, fused parts or gaps)": "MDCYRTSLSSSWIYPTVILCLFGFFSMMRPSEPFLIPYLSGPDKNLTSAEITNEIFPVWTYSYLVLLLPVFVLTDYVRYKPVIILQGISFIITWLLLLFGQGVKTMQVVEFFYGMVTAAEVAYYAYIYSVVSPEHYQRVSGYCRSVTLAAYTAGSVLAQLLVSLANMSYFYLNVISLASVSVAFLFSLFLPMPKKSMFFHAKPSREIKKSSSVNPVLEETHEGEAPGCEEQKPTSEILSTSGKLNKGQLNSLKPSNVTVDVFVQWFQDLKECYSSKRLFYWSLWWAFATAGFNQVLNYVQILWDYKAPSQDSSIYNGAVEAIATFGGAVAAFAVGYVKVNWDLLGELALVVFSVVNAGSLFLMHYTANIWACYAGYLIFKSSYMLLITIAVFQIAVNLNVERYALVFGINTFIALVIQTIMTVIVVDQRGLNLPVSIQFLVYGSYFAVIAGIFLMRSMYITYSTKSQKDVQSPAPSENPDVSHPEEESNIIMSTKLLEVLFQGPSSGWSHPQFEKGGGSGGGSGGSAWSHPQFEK", "assay": "Mass spectrometry-based cellular thiamine-d3 uptake assay", "format": "cell-based", "conditions": "200 μM compound, 2 μM thiamine-d3, 5 min, n = 3", "method": "The cells were then pelleted for 5 min at 250×g and resuspended in 1×PBS (pH 7.4) at a cell density of 2 million cells per mL. The cell suspension was subsequently transferred to a 96-deep well plate in three technical replicates per condition (n = 3, 1 mL per well, corresponding to 2 million cells per condition). 200 μM of the selected compounds were added to the respective wells and the cells were incubated for 1 min on a shaking platform. […] Afterwards, the cells were pelleted for 5 min at 500×g and washed 3× with 1 mL 1×PBS (pH7.4), before transferring them to a fresh 96-deep well plate. The cell pellets were stored at –70 °C. For the LC-MS/MS analysis, the samples were extracted by adding 500 µL of a mixture of H2O:MeOH:ACN (1:1:1, v/v), containing 5% (v/v) formic acid. After vortexing and ultrasonication in a water bath for 5 min at 4 °C, samples were incubated for 20 min at –20 °C. […] The supernatants were then transferred for LC-MS analysis, which was initiated within one hour after sample preparation. LC-MS/MS analysis was performed on a Vanquish UHPLC system coupled to an Orbitrap Exploris 240 high-resolution mass spectrometer (Thermo Fisher Scientific, MA, USA) in positive ESI (electrospray ionization) mode. Chromatographic separation was carried out on an Atlantis Premier BEH Z-HILIC column (Waters, MA, USA; 2.1 mm × 100 mm, 1.7 µm) at a flow rate of 0.25 mL/min. The mobile phase consisted of water:acetonitrile (9:1, v/v; mobile phase phase A) and acetonitrile:water (9:1, v/v; mobile phase B), which were modified with a total buffer concentration of 10 mM ammonium formate. The aqueous portion of each mobile phase was adjusted to pH 3.0 via addition of formic acid. The following gradient (8 min total run time including re-equilibration) was applied (time [min]/%B): 0/90, 3/85, 3.5/60, 4/60, 5/90, 8/90. Column temperature was maintained at 40 °C, the autosampler was set to 4 °C and sample injection volume was set to 3 µL. Analytes were recorded via a full scan with a mass resolving power of 120,000 over a mass range from 60 to 900 m/z (scan time: 100 ms, RF lens: 70%).\nAll experimental samples were measured in a randomized manner. Pooled quality control (QC) samples were prepared by mixing equal aliquots from each processed sample. Multiple QCs were injected at the beginning of the analysis in order to equilibrate the analytical system. A QC sample was analyzed after every 6th experimental sample to monitor instrument performance throughout the sequence. For determination of background signals and subsequent background subtraction, an additional processed blank sample was recorded. Data was processed using TraceFinder 5.1 and raw peak area data was exported for relative metabolite quantification."}, "[2]": {"conditions": "clinical trial ID NCT01437787; cited from earlier work"}, "hSLC19A3-E110Q": {"molecular_target": "hSLC19A3-E110Q (Homo sapiens, UniProt Q9BZV2, E110Q)", "sequence (Q9BZV2 with tags, fused parts or gaps E110Q)": "as the sequence (Q9BZV2 with tags, fused parts or gaps) above, with E110Q counted along it", "assay": "biochemical", "conditions": "Kd,app for thiamine, E110Q mutant; n = 3", "method": "(§1) The thermal stability of the hSLC19A3 constructs and their binding affinities for small molecules were determined by nanoDSF, using a Prometheus NT.48 (NanoTemper Technologies). For sample preparation, the protein was diluted to a final concentration of 4 μM in SEC buffer and supplied with the respective compounds in a concentration range from 2 μM to 2 mM. Before measurement, the samples were incubated for 30 min at room temperature. Melting scans were performed at a temperature range from 20 to 95 °C with a temperature increment of 1 °C per minute. Thermal unfolding curves were recorded by measuring the ratio of the tryptophan-fluorescence at 350 nm (F350) and 330 nm (F330). The protein melting temperature (Tm) of a given sample was determined as the inflection point of the thermal unfolding curves, or the local maximum of its first derivative. The measured curves were analysed using the manufacturer’s software (PR.ThermControl, v 2.1.2, NanoTemper Technologies). Based on the determined Tm values, ligand induced thermal shifts (ΔTm) were determined as the difference between the melting temperature of the ligand-bound state (Tm) and the apo state (Tm^apo).\n(§2) As R, Tstd and L are known and the ΔTm and Tm^apo are experimentally determined, non-linear curve fitting can be used to estimate Ea1 and Kd,app. The fitting was performed using symfit (v. 0.5.3), as described in Kotov et al., based on theoretical considerations formulated in Hall, 2019[56]."}, "hSLC19A3-Glu320Gln": {"molecular_target": "hSLC19A3-Glu320Gln (Homo sapiens, UniProt Q9BZV2, E320Q)", "sequence (Q9BZV2 with tags, fused parts or gaps E320Q)": "as the sequence (Q9BZV2 with tags, fused parts or gaps) above, with E320Q counted along it", "assay": "biochemical", "method": "as §1, §2"}, "hSLC19A3 Y113A": {"molecular_target": "hSLC19A3 Y113A (Homo sapiens, UniProt Q9BZV2, Y113A)", "sequence (Q9BZV2 with tags, fused parts or gaps Y113A)": "as the sequence (Q9BZV2 with tags, fused parts or gaps) above, with Y113A counted along it", "assay": "biochemical", "method": "as §1, §2"}, "hSLC19A3 Y151A": {"molecular_target": "hSLC19A3 Y151A (Homo sapiens, UniProt Q9BZV2, Y151A)", "sequence (Q9BZV2 with tags, fused parts or gaps Y151A)": "as the sequence (Q9BZV2 with tags, fused parts or gaps) above, with Y151A counted along it", "assay": "biochemical", "method": "as §1, §2"}, "hSLC19A3-Lys44Glu": {"molecular_target": "hSLC19A3-Lys44Glu (Homo sapiens, UniProt Q9BZV2, K44E)", "sequence (Q9BZV2 with tags, fused parts or gaps K44E)": "as the sequence (Q9BZV2 with tags, fused parts or gaps) above, with K44E counted along it", "assay": "biochemical", "method": "as §1, §2"}, "hSLC19A3 Q300A": {"molecular_target": "hSLC19A3 Q300A (Homo sapiens, UniProt Q9BZV2, Q300A)", "sequence (Q9BZV2 with tags, fused parts or gaps Q300A)": "as the sequence (Q9BZV2 with tags, fused parts or gaps) above, with Q300A counted along it", "assay": "biochemical", "method": "as §1, §2"}, "hSLC19A3 Y151F": {"molecular_target": "hSLC19A3 Y151F (Homo sapiens, UniProt Q9BZV2, Y151F)", "sequence (Q9BZV2 with tags, fused parts or gaps Y151F)": "as the sequence (Q9BZV2 with tags, fused parts or gaps) above, with Y151F counted along it", "assay": "biochemical", "method": "as §1, §2"}, "hSLC19A3 F56A": {"molecular_target": "hSLC19A3 F56A (Homo sapiens, UniProt Q9BZV2, F56A)", "sequence (Q9BZV2 with tags, fused parts or gaps F56A)": "as the sequence (Q9BZV2 with tags, fused parts or gaps) above, with F56A counted along it", "assay": "biochemical", "method": "as §1, §2"}, "hSLC19A3 W59A": {"molecular_target": "hSLC19A3 W59A (Homo sapiens, UniProt Q9BZV2, W59A)", "sequence (Q9BZV2 with tags, fused parts or gaps W59A)": "as the sequence (Q9BZV2 with tags, fused parts or gaps) above, with W59A counted along it", "assay": "biochemical", "method": "as §1, §2"}, "hSLC19A3 Thr422Ala": {"molecular_target": "hSLC19A3 Thr422Ala (Homo sapiens, UniProt Q9BZV2, T422A)", "sequence (Q9BZV2 with tags, fused parts or gaps T422A)": "as the sequence (Q9BZV2 with tags, fused parts or gaps) above, with T422A counted along it", "assay": "biochemical", "method": "as §1, §2"}, "hSLC19A3-Glu32Lys": {"molecular_target": "hSLC19A3-Glu32Lys (Homo sapiens, UniProt Q9BZV2, E32K)", "sequence (Q9BZV2 with tags, fused parts or gaps E32K)": "as the sequence (Q9BZV2 with tags, fused parts or gaps) above, with E32K counted along it", "assay": "biochemical", "conditions": "E32K mutant", "method": "as §1, §2"}, "[3]": {"molecular_target": "hSLC19A3-gf (N45Q, N166Q) (Homo sapiens, UniProt Q9BZV2, N166Q/N45Q)", "sequence (Q9BZV2 with tags, fused parts or gaps N45Q/N166Q)": "as the sequence (Q9BZV2 with tags, fused parts or gaps) above, with N45Q, N166Q counted along it", "assay": "biochemical", "method": "as §1, §2"}, "OCT1 (SLC22A1)": {"system": "OCT1 (SLC22A1)", "conditions": "read-out: Km (thiamine uptake); cited from earlier work"}, "SLC19A2": {"system": "SLC19A2", "conditions": "read-out: Km (thiamine uptake); cited from earlier work"}, "MFSD1": {"system": "MFSD1", "conditions": "negative control; thiamine titration 1.95 μM to 2 mM", "method": "as §1"}, "hSLC19A3 N297A": {"molecular_target": "hSLC19A3 N297A (Homo sapiens, UniProt Q9BZV2, N297A)", "sequence (Q9BZV2 with tags, fused parts or gaps N297A)": "as the sequence (Q9BZV2 with tags, fused parts or gaps) above, with N297A counted along it", "conditions": "N297A mutant", "method": "as §1\nAs R, Tstd and L are known and the ΔTm and Tm^apo are experimentally determined, non-linear curve fitting can be used to estimate Ea1 and Kd,app. […]"}, "hSLC19A3-wt": {"molecular_target": "T2, hSLC19A3-wt (Homo sapiens, UniProt Q9BZV2)", "T2 construct": "full-length, wildtype human SLC19A3; made in house; host or cells: Expi293F", "T2 sequence (Q9BZV2 with tags, fused parts or gaps)": "as the sequence (Q9BZV2 with tags, fused parts or gaps) above", "assay": "nanoDSF thermal shift assay / apparent binding affinity, wildtype transporter"}}, "note": "Values joined by “and” are separate entries in the source; they are usually repeats but may differ in a detail not shown here. Equal values may be shown once. “Also recorded” adds a separate entry of the source.", "data": [{"smiles": "Cc1cnc(Nc2ccc(OCCN3CCCC3)cc2)nc1Nc1cccc(S(=O)(=O)NC(C)(C)C)c1", "note": "[fedratinib]", "values": [{"measurement": "substrate status at the transporter", "setting": "SLC19A3", "value": "xenobiotic substrates of the transporter"}, {"measurement": "inhibition of thiamine uptake through hSLC19A3, in words", "setting": "[1]", "value": "strongly suppressed the thiamine transport activity of hSLC19A3"}, {"measurement": "adverse event in patients", "setting": "[2]", "value": "induced the development of Wernicke’s encephalopathy"}]}, {"smiles": "Cc1ncc(C[n+]2csc(CCO)c2C)c(N)n1", "note": "[thiamine]", "values": [{"measurement": "Km", "setting": "SLC19A3; read-out: Km (thiamine uptake)", "value": "2 to 7", "unit": "µM"}, {"measurement": "Kd", "setting": "hSLC19A3-E110Q", "value": "85 µM and 85.2 µM and ~85 µM"}, {"measurement": "Kd", "setting": "hSLC19A3-Glu320Gln", "value": "284 ± 45", "unit": "µM"}, {"measurement": "decrease in affinity for thiamine versus wildtype", "setting": "hSLC19A3-Glu320Gln; E320Q mutant", "value": 20, "unit": "fold"}, {"measurement": "Kd", "setting": "hSLC19A3 Y113A", "value": "15.5 ± 2", "unit": "µM"}, {"measurement": "effect of mutation on thiamine binding, in words", "setting": "hSLC19A3 Y113A; Y113A mutant (aromatic clamp)", "value": "did not impair thiamine binding"}, {"measurement": "Kd", "setting": "hSLC19A3 Y151A", "value": "17.8 ± 1.8", "unit": "µM"}, {"measurement": "Kd", "setting": "hSLC19A3-Lys44Glu", "value": "2.1 ± 0.1", "unit": "µM"}, {"measurement": "affinity for thiamine versus wildtype", "setting": "hSLC19A3-Lys44Glu; K44E mutant", "value": "six-fold higher affinity"}, {"measurement": "Kd", "setting": "hSLC19A3 Q300A", "value": "5.6 ± 1.4", "unit": "µM"}, {"measurement": "Kd", "setting": "hSLC19A3 Y151F", "value": "18.7 ± 9.1", "unit": "µM"}, {"measurement": "effect of mutation on thiamine affinity, in words", "setting": "hSLC19A3 Y151F; Y151F mutant", "value": "no strong effect on the affinity for thiamine was observed"}, {"measurement": "Kd", "setting": "hSLC19A3 F56A", "value": "4 ± 0.3", "unit": "µM"}, {"measurement": "Kd", "setting": "hSLC19A3 W59A", "value": "8.3 ± 1", "unit": "µM"}, {"measurement": "effect of mutation on thiamine binding, in words", "setting": "hSLC19A3 W59A; W59A mutant (aromatic clamp)", "value": "did not impair thiamine binding"}, {"measurement": "Kd", "setting": "hSLC19A3 Thr422Ala", "value": "172 ± 35", "unit": "µM"}, {"measurement": "drop in affinity for thiamine versus wildtype", "setting": "hSLC19A3-Glu32Lys", "value": "10 fold and > 10 fold"}, {"measurement": "Kd", "setting": "hSLC19A3-Glu32Lys; Kd,app for thiamine, n = 3", "value": 145, "unit": "µM"}, {"measurement": "Kd", "setting": "[3]", "value": "10.4 ± 0.9", "unit": "µM"}, {"measurement": "effect of the glycosylation-site mutations on thiamine binding, in words", "setting": "[3]; thermal stability experiments", "value": "did not show any interference of these mutations with thiamine binding"}, {"measurement": "Km", "setting": "OCT1 (SLC22A1)", "value": "~780", "unit": "µM"}, {"measurement": "Km", "setting": "SLC19A2", "value": "2 to 7", "unit": "µM"}, {"measurement": "response to thiamine, in words", "setting": "MFSD1", "value": "shows no response to thiamine"}, {"measurement": "loss in binding affinity for thiamine versus wildtype", "setting": "hSLC19A3 N297A", "value": "~ 250 fold"}, {"measurement": "Kd", "setting": "hSLC19A3-wt; Kd,app (apparent dissociation constant), concentration-dependent thermal shifts, fitted for 25 °C, n = 3, mean ± s.d.", "value": "~12 µM and 12.7 µM"}, {"measurement": "ΔTm at 2000 µM", "setting": "hSLC19A3-wt; read-out: ΔTm (thermal stabilisation of hSLC19A3)", "value": "10.9 ± 0.3", "unit": "°C"}, {"measurement": "thermal shift / interaction with hSLC19A3, in words", "setting": "hSLC19A3-wt; thermal shift screen at 20 μM and 200 μM compound", "value": "induces a strong stabilisation; also recorded: strong stabilisation of the transporter"}]}]}
